Consider five compounds from patent US20250127799A1, “DRUG CONJUGATES FOR BONE MARROW PROTECTION” (priority 2023, published 2025).

Data set [1] relates to A549 non-small cell lung cancer cells. As to the kind of experiment: CCK-8 cellular proliferation assay, co-culture with chemodrugs. It is filed as cell-based. As to conditions: for cellular proliferation compared to Non-treatment Control: 72 h. The protocol:
In this exemplary representative experiment, a CCK-8 cellular proliferation assay was conducted for A549 non-small cell lung cancer cells exposed to the Carboplatin with or without protective agents.
In another exemplary representative chemoprotection experiment, Paclitaxel was used instead of Carboplatin in the CCK-8 cellular proliferation assay for A549 cells.
Background: Tetrazolium dyes change colour on reduction, which living cells bring about.

The subject of data set [2] is Hs578T triple-negative breast cancer cells. The description is as above. The data set is classed as cell-based. As to conditions: for cellular proliferation compared to Non-treatment Control: 72 h. The protocol: In this exemplary representative experiment, a CCK-8 cellular proliferation assay was conducted for Hs578T triple-negative breast cancer cells exposed to the Carboplatin with or without protective agents.
In another exemplary representative chemoprotection experiment, Paclitaxel was used instead of Carboplatin in the CCK-8 cellular proliferation assay for Hs578T cells.

For data set [3], the target named is matrix metalloproteinase 9 (MMP9) (Homo sapiens, UniProt P14780). The data set can be described thus: In vitro matrix metalloproteinase-based conjugate cleavage. It is filed as biochemical. As to conditions: isolated enzyme, MMP9, 37° C., up to 20 h, read-out: T1/2 of cleavage (converted). The protocol:
In this exemplary representative cleavage experiment, a 90 μL stock solution of protective drug conjugate (1 mg/mL) was mixed with 2 μL of matrix metalloproteinase 9 (MMP9) (10 unit/μL) and 8.2 μL of 50 mM CaCl2 solution, followed by incubation at 37° C. for up to 20 h. A 10 μL sample was taken at 0.3, 1, 2, 4, 9, or 20 h for the HPLC analysis. Three conjugates having different peptide sequences (Conjugates 1-3) were used in this test: Conjugate 1-peptide sequence of CPLSLYAL (SEQ ID NO: 65); Conjugate 2-peptide sequence of CPLSLYSL (SEQ ID NO: 66); and Conjugate 3-peptide sequence of CPLGLAL (SEQ ID NO: 67). The concentrations of the conjugate residual in samples were normalized and presented as cleavage ratios.

In a further data set the test system is CD2F1 male mice. The data set can be described thus: In vivo radioprotective effects: 30-day survival after Cobalt-60 gamma irradiation. The settings on record: for survival rate: 12 h before 9.1 Gy. On the procedure: (§1) CD2F1 male mice (N=16) were subcutaneously (sc) injected with a single dose of two different conjugates. For one protective drug conjugate (Conjugate 1), the tested doses were 200, 400, and 800 mg/kg. The structure of Conjugate 1 included amifostine as the protective drug, alendronate as the bone-targeting ligand, and a protease-cleavable peptide having the sequence of CKPLGLWAL (SEQ ID NO: 33) with acetylation at the N-terminus (e.g., AcCKPLGLWAL; SEQ ID NO: 74). […] The irradiated mice were monitored for survival for 30 days post-irradiation. […] For the vehicle control group, the mortalities of mice occurred during 8 to 17 days post-irradiation, and the final survival rate was 6.25% (1 out of 16 survived), indicating significant mortality by gamma-irradiation.
For another protective drug conjugate (Conjugate 2), the tested doses were 250, 500, 600, and 700 mg/kg, and the irradiation was conducted at 24 h post-drug administration. The structure of Conjugate 2 included amifostine as the protective drug, alendronate as the bone-targeting ligand, and a protease-cleavable peptide having the sequence of CPLGLYAL (SEQ ID NO: 29) with acetylation at the N-terminus (e.g., AcCPLGLYAL; SEQ ID NO: 76).
as §1, with “a” for “two different conjugates. For one”, “1), and” for “1),”, “250, 300,” for “200, 400,”, “350” for “800”, “0% (0” for “6.25% (1”
as §1, with “CD2F1 male mice (N=16) were subcutaneously (sc) injected CD2F1” for “CD2F1”, “a” for “two different conjugates. For one”, “1), and” for “1),”, “250, 300,” for “200, 400,”, “350” for “800”
CD2F1 male mice (N=16) were subcutaneously (sc) injected CD2F1 male mice (N=16) were subcutaneously (sc) injected with a single dose of a protective drug conjugate (Conjugate 1), and the tested doses were 50, 100, and 200 mg/kg. The structure of Conjugate 1 included amifostine as the protective drug, alendronate as the bone-targeting ligand, and a protease-cleavable peptide having the sequence of CKPLGLWAL (SEQ ID NO: 33) with acetylation at the N-terminus (e.g., AcCKPLGLWAL; SEQ ID NO: 74). […] The irradiated mice were monitored for survival for […] post-irradiation. […] For the vehicle control group, the mortalities of mice occurred during 8 to 17 days post-irradiation, and the final survival rate was 0% (0 out of 16 survived), indicating significant mortality by gamma-irradiation.
CD2F1 male mice (N=16) were subcutaneously (sc) injected CD2F1 male mice (N=16) were subcutaneously (sc) injected with a single dose of a protective drug conjugate, i.e., Conjugate 3. The tested doses were 250, 300, and 350 mg/kg. […]

The nature of data set [4]: Conjugate cleavage in fresh bone marrow aspirate (HPLC). The data set is classed as in vitro ADME. The settings on record: human bone marrow aspirate, same donor, 37° C., up to 6 h. On the procedure:
The proteolytic cleavage of conjugates determines the therapeutic window, which is controlled by the specific peptide sequence. In a representative cleavage experiment, a […] stock solution of a conjugate (30 mg/mL) was mixed with 90 μL of fresh bone marrow aspirate, followed by incubation at 37° C. for up to 6 h. A 10 μL sample was taken every hour, diluted in 90 μL acetonitrile to precipitate proteins and extract conjugates and cleavage products. The concentrations of the conjugates in samples were determined by HPLC, normalized, and presented as the cleavage ratio.

Data set [5] relates to human bone marrow mononuclear cells. The data set can be described thus: Colony forming unit assay, protection of cells exposed to carboplatin. It is filed as cell-based. As to conditions: for CFU counts normalized to untreated cells: 50 μM carboplatin for 4 h. On the procedure: In this exemplary representative chemoprotection experiment, a colony forming unit assay was conducted for bone marrow mononuclear cells exposed to carboplatin with or without the pre-treatment with protective agents. In brief, 1.1×10^4 human bone marrow mononuclear cells were suspended in 300 μL culture medium and mixed with 30 μL solutions of PBS (control), Amifostine, WR1065, or Conjugate (with the peptide sequence of CFLG (SEQ ID NO: 18)) at various concentrations. After 2 h of incubation, cells were washed and resuspended in 300 μL culture medium, followed by incubation with 50 μM carboplatin for 4 h. Next, cells were washed and resuspended in the colony forming medium for 14 days. The number of resultant CFU in each group was then determined, and the results were normalized to the group of cells without any treatment. […] In another exemplary representative chemoprotection experiment, Amifostine and Conjugate with the peptide sequence of CFLG (SEQ ID NO: 18) with concentrations ranging from 50 to 1,000 μM were evaluated.

For data set [6] the following is noted: in vivo; cited from earlier work.
In the next data set the test system is human HSPCs. As to the kind of experiment: In vitro radioprotection for human HSPCs (CCK8 viability). The settings on record: for cellular viability compared to the group receiving no treatment at the same exposure dose: 2-8 Gy; for cellular viability: 50 μM for 4 h. On the procedure: In this exemplary representative experiment, human HSPCs were seeded in a 96-well plate at a density of 2.5×10^4 per well (N=6 for each group). Next, cells were treated with a protective drug conjugate having a peptide sequence of CAPIGIAL (SEQ ID NO: 68) with acetylation at the N-terminus (e.g., AcCAPIGIAL; SEQ ID NO: 80) or amifostine alone at the final concentrations ranging from 0 to 100 μM for 4 h, followed by exposure to y-radiation (Cs-137) at 3 or 8 Gy (0.6 Gy/min). Two hours after the irradiation, the culture medium was replaced by a fresh medium. After 24 h of further incubation, a CCK8 assay was applied to evaluate the cell viability.
In this exemplary representative experiment, human HSPCs were seeded in a 96-well plate at a density of 2.5×10^4 per well (N=6 for each group).

Ends that are not written are not given here. Peptide text beside a SMILES is read from it. * marks the point of attachment. X1 = O=C(CCCCCN1C(=O)CC(*)C1=O)NCCCC(O)(P(=O)(O)O)P(=O)(O)O; X2 = O=P(O)(O)SCCNCCCN* Some results are limits rather than exact numbers.

Sequence of matrix metalloproteinase 9 (MMP9) (P14780 94-707, species assumed): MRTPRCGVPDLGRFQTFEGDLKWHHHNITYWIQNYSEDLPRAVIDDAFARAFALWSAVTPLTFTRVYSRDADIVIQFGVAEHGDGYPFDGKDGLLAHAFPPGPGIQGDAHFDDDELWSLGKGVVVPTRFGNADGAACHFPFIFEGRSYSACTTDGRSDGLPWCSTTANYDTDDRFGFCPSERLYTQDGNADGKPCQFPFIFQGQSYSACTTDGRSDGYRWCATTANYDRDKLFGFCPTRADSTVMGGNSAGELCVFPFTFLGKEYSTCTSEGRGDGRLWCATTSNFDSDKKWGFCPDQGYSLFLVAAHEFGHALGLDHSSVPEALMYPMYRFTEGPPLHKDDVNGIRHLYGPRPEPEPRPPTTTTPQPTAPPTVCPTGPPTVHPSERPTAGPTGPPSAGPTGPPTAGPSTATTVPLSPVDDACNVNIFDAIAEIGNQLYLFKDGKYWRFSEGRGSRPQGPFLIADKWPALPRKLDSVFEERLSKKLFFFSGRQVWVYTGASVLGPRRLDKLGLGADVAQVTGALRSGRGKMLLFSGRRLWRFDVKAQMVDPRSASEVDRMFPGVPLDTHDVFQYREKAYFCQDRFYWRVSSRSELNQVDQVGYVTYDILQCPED

`CC(=O)O[C@H]1C(=O)[C@@]2(C)[C@H]([C@H](OC(=O)c3ccccc3)[C@]3(O)C[C@H](OC(=O)[C@H](O)[C@@H](NC(=O)c4ccccc4)c4ccccc4)C(C)=C1C3(C)C)[C@]1(OC(C)=O)CO[C@@H]1C[C@@H]2O` [Paclitaxel]: the figures for the “cellular proliferation compared to Non-treatment Control” value in data set [1] (5 nM Paclitaxel) and in data set [2] (5 nM Paclitaxel) were about 30% and about 35%, respectively.

In the case of `CC(=O)N[C@@H](CSC1CC(=O)N(CCCCCC(=O)NCCCC(O)(P(=O)(O)O)P(=O)(O)O)C1=O)C(=O)N[C@@H](CCCCN)C(=O)N1CCC[C@H]1C(=O)N[C@@H](CC(C)C)C(=O)NCC(=O)N[C@@H](CC(C)C)C(=O)N[C@@H](Cc1c[nH]c2ccccc12)C(=O)N[C@@H](C)C(=O)N[C@@H](CC(C)C)C(=O)NCCCNCCSP(=O)(O)O` (stereo partly shown) [Conjugate 1] (Ac-C(X1)KPLGLWAL-X2), the half-life at 0.898 mg/mL in data set [3] is about 2 h. Further, the survival rate in the data set with CD2F1 male mice (50 mg/kg sc) turned out to be 75%; in the data set on CD2F1 male mice (100 mg/kg sc) it was 93.75%; in the data set with CD2F1 male mice (200 mg/kg sc) it was 93.75%. Besides, the 30-day survival rate in the data set on CD2F1 male mice (200 mg/kg sc, 6 h before 9.2 Gy) came to 68.75%; in the data set with CD2F1 male mice (250 mg/kg sc, 9 h before 9.2 Gy) it was 75%; in the data set on CD2F1 male mice (250 mg/kg sc, 12 h before 9.2 Gy), 100%; in the data set on CD2F1 male mice (300 mg/kg sc, 9 h before 9.2 Gy), 87.25%; in the data set on CD2F1 male mice (300 mg/kg sc, 12 h before 9.2 Gy), 87.5%; in the data set on CD2F1 male mice (350 mg/kg sc, 9 h before 9.2 Gy) it was 56.25%. Further, the 30-day survival rate with CD2F1 male mice (350 mg/kg sc, 12 h before 9.2 Gy) is 81.25%; in the data set with CD2F1 male mice (400 mg/kg sc, 6 h before 9.2 Gy), 81.25%; in the data set on CD2F1 male mice (800 mg/kg sc, 6 h before 9.2 Gy), 68.75%. Besides, the “time to reach 50% conjugate cleavage” value in data set [4] is recorded as 2.4 h.

With `N.N.O=C([O-])C1(C(=O)[O-])CCC1.[Pt+2]` [Carboplatin], the “CFU counts normalized to untreated cells” value in data set [5] (no protective agent (FIG. 8A)) is about 40%; in data set [5] (no protective agent (FIG. 8B)), about 30%. In addition, the “cellular proliferation compared to Non-treatment Control” value is reported as about 30% in data set [1] (0.1 mM Carboplatin) and about 35% in data set [2] (0.1 mM Carboplatin).

Turning to `NCCCNCCSP(=O)(O)O` [Amifostine], in data set [6], the “bone marrow residence time” value is reported as under 30 min and the pharmacokinetic circulating time is on record as under 8 min. In data set [5] (pretreatment 50 to 1,000 μM, dose-dependent (FIG. 8B)), the “mitigation of Carboplatin-caused CFU reduction” value is “significantly mitigated”. Further, the “toxicity to A549 cells” value in data set [1] (10 to 200 μM) is on record as “non-toxic”. Besides, the “cellular viability compared to the group receiving no treatment at the same exposure dose” value in the data set with human HSPCs (50 μM) is given as “much higher cellular viability”. Moreover, the “toxicity to Hs578T cells” value in data set [2] (10 to 200 μM) was “non-toxic”.

Regarding “Conjugate (AcCAPIGIAL): protective drug conjugate having peptide sequence CAPIGIAL with acetylation at the N-terminus (SEQ ID NO: 80) (Ac-CAPIGIAL; also: amifostine conjugate (site not given here))”, the cellular viability with human HSPCs (then 2 Gy (FIG. 6B)) is on record as 91.9%; with human HSPCs (then 8 Gy (FIG. 6A)) it was 61.1%; in the data set with human HSPCs (then 8 Gy (FIG. 6B)), 59.6%. Further, in the data set on human HSPCs (50 μM), the “cellular viability compared to the group receiving no treatment at the same exposure dose” value is on record as “much higher cellular viability”. Further, the “cellular viability relative to the control group” value in the data set with human HSPCs (50 μM, 8 Gy) is about 2.3 fold. Also, the “difference in cellular viability between conjugate and amifostine groups” value in the data set on human HSPCs (50 μM, any exposure dose from 2 Gy to 8 Gy) was “no statistical difference”. The “concentration of maximum radioprotective efficacy” value with human HSPCs (8 Gy, 0-100 μM tested) was 50 µM. Also, the radioprotective effect entry in the data set on human HSPCs (50 or 100 μM, 3 Gy) is reported as “significant radioprotective effect”.
